Experiments:
[1] = system: Sprague Dawley (SD) rats; test: Reversible middle cerebral artery occlusion (MCAO), infarct volume, Sprague Dawley rats; type: in vivo, rat; conditions: 300 ng/kg/min continuous subcutaneous infusion, vs vehicle treated controls, 24 h after induction of cerebral ischemia (1 h MCAO)
Protocol: (§1) Male Sprague Dawley (SD) or spontaneously hypertensive rats (SHRS) were anesthetized using isoflurane and the right middle cerebral artery (MCAO) occluded by insertion of a 4-0 nylon monofilament up the internal carotid artery to the origin of the middle cerebral artery (MCA) (Zea Longa et al, 1989 Stroke 20:84). After 1 h the filament was retracted, the ischemic territory reperfused and the animal allowed to recover. After 24 h the rats were sacrificed, at which time brains were removed and analyzed histologically to quantify infarct volume.
(§2) Groups of animals were treated with either vehicle (PBS) or the bradykinin B2 receptor antagonist Hoe 140 (Hoechst) by continuous subcutaneous infusion via osmotic mini-pumps. Primed mini osmotic pumps (Alza Corp.,) were implanted into the subcutaneous space at the scruff of the neck immediately prior to induction of cerebral ischemia. The pumps were loaded to release 300 ng/kg/min Hoe 140 and delivered compound or vehicle at a rate of 8 μl/h.
(§3) In a separate experiment groups of animals were treated with either vehicle (sterile isotonic saline), TA2 (mouse anti rat VLA4: Seikagaku America Inc.) or an isotype control antibody (mouse anti-human LFA3: obtained from Biogen, Inc.). All treatments were administered 24 h before surgery intravenously (2.5 mg/kg or appropriate volume of vehicle)
(§4) Vehicle treated control rats that underwent MCAO sustained extensive lesions throughout cortical and subcortical regions of the brain. The ischemic hemisphere was markedly swollen and significant behavioral deficits were observed (eg. hemiparesis resulting in rotation and limb weakness). Spontaneously hypertensive rats sustained more extensive and reproducible brain infarcts than Sprague Dawley rats subjected to the same surgical procedure. Infarct volumes are expressed as mean values+/−s.e.m. Statistical analysis was performed using an unpaired Students' t-test (* denotes p<0.05, ** denotes p<0.01).

[2] = system: spontaneously hypertensive rats (SHRs); test: Reversible middle cerebral artery occlusion (MCAO), infarct volume, spontaneously hypertensive rats; type: in vivo, rat; conditions: 300 ng/kg/min continuous subcutaneous infusion, vs vehicle treated controls, 24 h after induction of cerebral ischemia (1 h MCAO)
Protocol: as §1, §2, §3, §4

Hoe 140
reduction of cortical infarct volume [1]: 93% | reduction of subcortical infarct volume [1]: 24% | reduction of total infarct volume [1]: 57% | reduction of cortical infarct volume [2]: 43% | reduction of subcortical infarct volume [2]: 17% | reduction of total infarct volume [2]: 37%

Reference: patent US20020197233A1, “Methods of treating central nervous system ischemic or hemorrhagic injury using anti alpha4 integrin antagonists” (priority 1999, published 2002)
